Measurements from patent publication US4594340A, “25,26-dehydro-1α,24R-dihydroxycholecalciferol and 25,26-dehydro-1α,24S-dihydroxycholecalciferol and the epimeric mixture” (Hoffmann-La Roche Inc., priority 1984, dated 1986).

Legend:
HL-60 cells = test: Differentiation of HL-60 cells by nitroblue tetrazolium (NBT) reduction; type: cell-based, human (patient); settings: Homo sapiens, 96 h; HL-60 cells, NBT test; read-out: HL-60 Test Differentiation NBT Test ED50
Protocol: Cultures of HL-60 cells were established in the absence (control) or presence of various concentrations of the test compound. […] Proliferation was assessed by directly enumerating the increased number of tumor cells resulting from incubation. Viability was determined by dye exclusion technique to learn whether any of the compounds were lethal to cultured HL-60 cells. Cellular differentiation was evaluated by determining the number of cells which had acquired the enzymes necessary to support a respiratory burst and the functional ability to phagocytose (bind/internalize) particulate material from their environment; both activities being characteristic of mature macrophages and granulocytes,
Experimental compounds were dissolved in sufficient ethanol to yield stock solutions of 1×10^-2 molar. Reduced lighting was employed when working with compounds and stock solutions were stored in the dark at -20° in an argon atmosphere. Compounds were diluted with tissue culture medium and added to flasks containing HL-60 cells to achieve the final concentrations described in each experiment.
The promyelocytic (HL-60) tumor cell line was derived from a patient with acute promyelocytic leukemia. HL-60 cells were maintained in liquid culture by serial weekly passage in tissue culture medium. In any experiment, three replicate flasks were incubated without compound (control) or in the presence of varying concentrations of compound. […]
Quantitation of differentiated cells was done by the biochemical method of nitroblue tetrazolium (NBT) reduction. Sufficient cells were pooled from replicate cultures, centrifuged at 220×g, washed once with serum-free tissue culture medium, and resuspended to 1×10^6 cells per ml in Ca^++ --Mg^++ -deficient phosphate buffered saline (prepared by supplementing Ca^++ --Mg^++ -free phosphate buffered saline (PBS) to 10% v/v with heat-inactivated fetal bovine serum). Nitroblue tetrazolium was dissolved at 1 mg per ml in Ca^++ --Mg^++ -deficient PBS with gentle heating and mixing. Tetradecanoyl phorbol acetate (TPA) was dissolved at 1 mg per ml in ethanol and stored at -20° C. Just prior to use, a working solution of TPA was prepared by diluting the stock concentration 100-fold with Ca^++ --Mg^++ -deficient PBS. The test was done in 12×75 mm tubes by adding 0.5 ml Ca^++ --Mg^++ -deficient PBS, 1.0 ml of HL-60 cells, 0.5 ml of NBT solution, and 0.02 ml of the working TPA solution. After mixing, the tubes were incubated in a 37° water bath for 25 minutes then transferred to ice. Undifferentiated and differentiated cells present in any sample were determined microscopically by surveying 200-400 cells per sample or by cytofluorograph by surveying greater than 30,000 cells. Cells without pigmented granules (clear cells) were judged to be undifferentiated while those containing greater than 3 blue-black formazan granules were scored as differentiated. […] Results are expressed as the percentage of differentiated cells present in any sample as calculated according to the formula: [formula]

[1] = Antirachitogenic increase in tibia ash in chicks on vitamin D-deficient diet; type: in vivo, chick (White Leghorn cockerels); settings: 27 ng, orally, 21 consecutive days
Protocol: **Oneday-old White Leghorn cockerels were placed on a vitamin Ddeficient
diet which contained 1% calcium and 0.7% phosphorus and were housed under
ultravioletfree lighting (General Electric F40G0 gold fluorescent lights)
The test compound was dissolved in propylene glycol and administered
orally in a volume of 0.2 ml/day for 21 consecutive days. Controls were
treated with vehicle alone. Chicks were autopsied on the day after the […]

SMILES: C=C1/C(=C\C=C2/CCC[C@]3(C)[C@@H]([C@H](C)CCCC(C)(C)O)CC[C@@H]23)C[C@@H](O)C[C@@H]1O [1α,25-Dihydroxycholecalciferol, reference compound]
- EC50 (HL-60 cells): 12 nM
- Antirachitogenic Increase in Tibia Ash in Chicks [1]: 61%
